Patent publication US20160106708A1, “USE OF ANTIOXIDANTS FOR THE TREATMENT OF COGNITIVE AND BEHAVIOURAL DISORDERS IN INDIVIDUALS WITH FRAGILE X SYNDROME” (Servicio Andaluz de Salud, priority 2010, published 2016)

What was measured:
[1] = system: patients with Fragile X syndrome; conditions: cited from earlier work; for Efficacy on symptoms in patients with Fragile X Syndrome: published trials
[2] = system: FMR1-KO mice; test: Open field, locomotive activity (hyperactivity); type: in vivo, mouse; conditions: chronic treatment, 15-minute period, treated vs FMR1-KO without treatment, saline control and Tianeptine (tianeptine group: FMR1-KO vs WT)
Description: FIG. 1. Open-field distance travelled by the mice in a 15-minute period of time for the different treatments.
In all the groups of WT mice, locomotion was maintained without significant variations, about 4000 cm of distance travelled (FIG. 1); this test was used to check the mice's hyperactivity.

[3] = system: FMR1-KO mice; test: Reduced glutathione (GSH) in brain extract; type: in vivo, mouse; conditions: vs saline control
Description: FIG. 5. Concentration of GSH in mouse brain extract (μmol/g protein). FMR1-KO (n=8): black bars and WT (n=9): white bars. *p<0.05 FMR1-KO vs. WT. # p<0.05 FMR1-KO vs. FMR1-KO. † p<0.05 WT vs. WT.

[4] = system: FMR1-KO mice; test: Level of lipid peroxidation (TBARS) in cerebral membranes; type: in vivo, mouse; conditions: FMR1-KO vs WT under treatment; tianeptine: both genotypes vs saline control
Description: FIG. 4. Concentration of TBARS in mouse cerebral membranes (nmol/mg protein).

[5] = system: FMR1-KO mice; test: Measurement of corticosterone in serum; type: in vivo, mouse; conditions: FMR1-KO mice vs WT controls under the same treatment
Description: FIG. 3. Concentration of corticosterone in mouse serum (ng/ml).

[6] = system: Fmr1-KO mouse; conditions: chronic treatment; cited from earlier work
[7] = system: FMR1-KO mice; test: Raised cross-shaped maze (anxiety); type: in vivo, mouse; conditions: chronic treatment, 5-minute period, treated vs FMR1-KO without treatment, saline control and Tianeptine (Tianeptine group: FMR1-KO vs WT)
Description: FIG. 2. Percentage permanence time in the open arm of the raised cross-shaped maze in a 5-minute period of time for the different treatments.
This test is used to determine the anxiety of the animal model, under baseline and treated conditions.

[8] = system: FMR1-KO mice; test: Oxidised glutathione (GSSG, % of GSH) in brain extract; type: in vivo, mouse; conditions: vs saline and naive controls
Description: FIG. 6. Percentage of GSSG with respect to GSH in mouse brain extract. FMR1-KO (n=8): black bars and WT (n=9): white bars. *p<0.05 FMR1-KO vs. WT. # p<0.05 FMR1-KO vs. FMR1-KO. † p<0.05 WT vs. WT.

[9] = system: children with Autism; conditions: 18 children with Autism; cited from earlier work
[10] = human; cited from earlier work
[11] = system: cytotoxicity induced by L-buthionine-sulfoximine (BSO); conditions: BSO causes decrease in intracellular glutathione; cited from earlier work
[12] = system: patients with Alzheimer's disease; conditions: cited from earlier work
[13] = system: transgenic mouse model for Alzheimer's disease; conditions: cited from earlier work

In the case of `COC(=O)N1CC[C@@H]2[C@H]1CCC[C@@]2(O)C#Cc1cccc(C)c1` [AFQ056], the “Efficacy on symptoms in patients with Fragile X Syndrome” value (from here on “Efficacy on symptoms in patients”) [1] is given as “demonstrates its effectiveness on the behavioural and learning problems”.
For `CN1CC(=O)NC1=NC(=O)Nc1cccc(Cl)c1` [Fenoban], the “Efficacy on symptoms in patients” value [1] is given as “efficacy”.
In the case of `CC(=O)O[C@H](CC(=O)[O-])C[N+](C)(C)C` [L-acetylcarnitine], the “Efficacy on symptoms in patients” value [1] is listed as “efficacy in reducing hyperactivity and improving social relations”.
In the case of `COc1ccc2[nH]cc(CCNC(C)=O)c2c1` [Melatonin], the “Open-field total distance travelled” value [2] is reported as “lower (p<0.05)”, the “GSH in brain extract” value [3] is reported as “higher values of GSH” and the “Levels of TBARS in cerebral membranes” value [4] is reported as “normalises the levels of TBARS”. For the same molecule, the “Concentration of corticosterone in serum” value [5] was “maintained the same levels of corticosterone as compared to the WT controls”, the “Effect on parameters characteristic of the syndrome (hyperactivity, anxiety disorder, cognitive deficit)” value [6] was “normalising several parameters characteristic of the syndrome” and the “Efficacy on symptoms in patients” value [1] was “reduce the sleep problems”. For the same molecule, the “Percentage permanence time in the open arm of the raised cross-shaped maze” value [7] was “lower (p<0.05)” and the “Percentage of GSSG with respect to GSH in brain extract” value [8] was “normalised the values of GSSG”.
In the case of `CC12CC3CC(C)(C1)CC(N)(C3)C2` [Nemantine], the “Patients showing symptoms of improvement” value ([1]; of 6 affected patients) is given as 4.
In the case of `CN1c2ccccc2C(NCCCCCCC(=O)O)c2ccc(Cl)cc2S1(=O)=O` (centres unmarked) [Tianeptine], the “Open-field total distance travelled” value [2] is reported as “greater total travelled distance”.
In the case of `O=C1O[C@H]([C@@H](O)CO)C(O)=C1O` [Vitamin C, Ascorbic Acid], the “Effect on symptoms of Autism” value [9] is given as “significant decrease of some symptoms” and the Half-life [10] is given as 16 days.
For `Cc1c(C)c2c(c(C)c1O)CC[C@@](C)(CCC[C@H](C)CCC[C@H](C)CCCC(C)C)O2` [Vitamin E, alpha-Tocopherol], the “Protection against BSO-induced cytotoxicity” value [11] is given as “significant protection”, the “Open-field total distance travelled” value [2] is given as “lower (p<0.05)” and the “GSH in brain extract” value [3] is given as “higher values of GSH”. The “Levels of TBARS in cerebral membranes” value [4] was “normalises the levels of TBARS”, the “Concentration of corticosterone in serum” value [5] was “maintained the same levels of corticosterone as compared to the WT controls” and the “Effect on parameters characteristic of the syndrome (hyperactivity, anxiety disorder, cognitive deficit)” value [6] was “normalising several parameters characteristic of the syndrome”. The “Percentage permanence time in the open arm of the raised cross-shaped maze” value [7] was “lower (p<0.05)”, the “Percentage of GSSG with respect to GSH in brain extract” value [8] was “normalised the values of GSSG” and the “Effect on mental deterioration” value [12] was “capable of delaying mental deterioration”. The “Lipid peroxidation and amyloid deposition” value [13] was “reduced lipid peroxidation and amyloid deposition”.
For `COc1cc2c(cc1OC)C(=O)C(CC1CCN(Cc3ccccc3)CC1)C2` (centres unmarked) [donezepil], the “Efficacy on symptoms in patients” value [1] is listed as “significantly improves cognitive and behavioural functions”.
